Laboratory results: patent US20220112479A1, “COMPOUNDS STABILIZING AMYLASES IN LIQUIDS” (BASF SE, priority 2018, published 2022)

Assays:
Assay type in all cases: biochemical
Details in all cases: storage at 37° C.
Amy1=Stainzyme = test: amylase storage stability in liquid formulation (pNP release from Ethyliden-blocked-pNPG7); design: key: % of activity in reference formulation at time 0
Procedure, shortened: (§1)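 Amylase (dosed as active protein) was stored at 37 °C in liquid base formulations with or without test or comparative compounds. Activity at set time points was measured as pNP release (A405) from blocked-pNPG7 with excess α-glucosidase, expressed relative to the reference formulation at time 0.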

Amy2=Amplify = test: as above; design: key: % of activity in reference formulation at time 0
Procedure, shortened: as §1

Savinase Ultra 16.0L = biological target: T1, Savinase Ultra 16.0L (Lederbergia lenta, UniProt P29600); test: protease storage stability in liquid formulation (Suc-AAPF-pNA substrate)
T1 construct: purchased Sigma-Aldrich
T1 sequence (P29600 1-269): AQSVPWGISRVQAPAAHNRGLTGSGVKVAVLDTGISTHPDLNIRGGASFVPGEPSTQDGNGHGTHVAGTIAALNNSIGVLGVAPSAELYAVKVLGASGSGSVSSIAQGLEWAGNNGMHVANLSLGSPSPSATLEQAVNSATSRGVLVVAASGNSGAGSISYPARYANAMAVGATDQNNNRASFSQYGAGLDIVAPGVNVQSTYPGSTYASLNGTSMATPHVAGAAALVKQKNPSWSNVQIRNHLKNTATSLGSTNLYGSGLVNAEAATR
Procedure, shortened: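 Savinase in liquid base formulations containing test salt, comparative compound or diethylene glycol; amounts given as active protein. Residual activity at set storage times measured with Suc-AAPF-pNA via pNA release at OD405, 20 °C. Activity expressed relative to reference formulation at time 0.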

[1] = base formulation I., 1.5 wt % component (a), 3 d
[2] = base formulation I., 1.5 wt % component (a), 7 d
[3] = base formulation I., 1.5 wt % component (a), 14 d
[4] = base formulation I., 1.5 wt % component (a), 21 d
[5] = base formulation I., 1.5 wt % component (a), 28 d
[6] = base formulation I., 1.5 wt % component (a), 42 d
[7] = base formulation I., 1.5 wt % component (a), T0
[8] = base formulation IV., 2.0 wt % component (a), 3 d
[9] = base formulation IV., 2.0 wt % component (a), 7 d
[10] = base formulation IV., 2.0 wt % component (a), 14 d
[11] = base formulation IV., 2.0 wt % component (a), 21 d
[12] = base formulation IV., 2.0 wt % component (a), 28 d
[13] = base formulation IV., 2.0 wt % component (a), 42 d
[14] = base formulation IV., 2.0 wt % component (a), T0
[15] = base formulation III., 1.5 wt % component (a), 3 d
[16] = base formulation III., 1.5 wt % component (a), 7 d
[17] = base formulation III., 1.5 wt % component (a), 14 d
[18] = base formulation III., 1.5 wt % component (a), 21 d
[19] = base formulation III., 1.5 wt % component (a), 28 d
[20] = base formulation III., 1.5 wt % component (a), 42 d
[21] = base formulation III., 1.5 wt % component (a), T0
[22] = base formulation V., 2.0 wt % component (a), 3 d
[23] = base formulation V., 2.0 wt % component (a), 7 d
[24] = base formulation V., 2.0 wt % component (a), 14 d
[25] = base formulation V., 2.0 wt % component (a), 21 d
[26] = base formulation V., 2.0 wt % component (a), 28 d
[27] = base formulation V., 2.0 wt % component (a), 42 d
[28] = base formulation V., 2.0 wt % component (a), T0

Diethylcitrate [A.7]
amylase activity, referring to reference formulation at time 0 (Amy1=Stainzyme; [1]): 96
amylase activity, referring to reference formulation at time 0 (Amy1=Stainzyme; [2]): 86
amylase activity, referring to reference formulation at time 0 (Amy1=Stainzyme; [3]): 81
amylase activity, referring to reference formulation at time 0 (Amy1=Stainzyme; [4]): 74
amylase activity, referring to reference formulation at time 0 (Amy1=Stainzyme; [5]): 63
amylase activity, referring to reference formulation at time 0 (Amy1=Stainzyme; [6]): 50
amylase activity, referring to reference formulation at time 0 (Amy1=Stainzyme; [7]): 99
amylase activity, referring to reference formulation at time 0 (Amy1=Stainzyme; [8]): 94
amylase activity, referring to reference formulation at time 0 (Amy1=Stainzyme; [9]): 88
amylase activity, referring to reference formulation at time 0 (Amy1=Stainzyme; [10]): 82
amylase activity, referring to reference formulation at time 0 (Amy1=Stainzyme; [11]): 74
amylase activity, referring to reference formulation at time 0 (Amy1=Stainzyme; [12]): 63
amylase activity, referring to reference formulation at time 0 (Amy1=Stainzyme; [13]): 52
amylase activity, referring to reference formulation at time 0 (Amy1=Stainzyme; [14]): 99
amylase activity, referring to reference formulation at time 0 (Amy2=Amplify; [15]): 96
amylase activity, referring to reference formulation at time 0 (Amy2=Amplify; [16]): 91
amylase activity, referring to reference formulation at time 0 (Amy2=Amplify; [17]): 85
amylase activity, referring to reference formulation at time 0 (Amy2=Amplify; [18]): 78
amylase activity, referring to reference formulation at time 0 (Amy2=Amplify; [19]): 70
amylase activity, referring to reference formulation at time 0 (Amy2=Amplify; [20]): 60
amylase activity, referring to reference formulation at time 0 (Amy2=Amplify; [21]): 98
amylase activity, referring to reference formulation at time 0 (Amy2=Amplify; [22]): 96
amylase activity, referring to reference formulation at time 0 (Amy2=Amplify; [23]): 87
amylase activity, referring to reference formulation at time 0 (Amy2=Amplify; [24]): 74
amylase activity, referring to reference formulation at time 0 (Amy2=Amplify; [25]): 63
amylase activity, referring to reference formulation at time 0 (Amy2=Amplify; [26]): 55
amylase activity, referring to reference formulation at time 0 (Amy2=Amplify; [27]): 47
amylase activity, referring to reference formulation at time 0 (Amy2=Amplify; [28]): 98
protease activity, referring to reference formulation at time 0 (Savinase Ultra 16.0L; [1]): 94
protease activity, referring to reference formulation at time 0 (Savinase Ultra 16.0L; [2]): 91
protease activity, referring to reference formulation at time 0 (Savinase Ultra 16.0L; [3]): 85
protease activity, referring to reference formulation at time 0 (Savinase Ultra 16.0L; [4]): 81
protease activity, referring to reference formulation at time 0 (Savinase Ultra 16.0L; [5]): 76
protease activity, referring to reference formulation at time 0 (Savinase Ultra 16.0L; [6]): 63
protease activity, referring to reference formulation at time 0 (Savinase Ultra 16.0L; [7]): 100
protease activity, referring to reference formulation at time 0 (Savinase Ultra 16.0L; base formulation II., 1.5 wt % component (a), 3 d): 98
protease activity, referring to reference formulation at time 0 (Savinase Ultra 16.0L; base formulation II., 1.5 wt % component (a), 7 d): 93
protease activity, referring to reference formulation at time 0 (Savinase Ultra 16.0L; base formulation II., 1.5 wt % component (a), 14 d): 88
protease activity, referring to reference formulation at time 0 (Savinase Ultra 16.0L; base formulation II., 1.5 wt % component (a), 21 d): 85
protease activity, referring to reference formulation at time 0 (Savinase Ultra 16.0L; base formulation II., 1.5 wt % component (a), 28 d): 80
protease activity, referring to reference formulation at time 0 (Savinase Ultra 16.0L; base formulation II., 1.5 wt % component (a), 42 d): 71
protease activity, referring to reference formulation at time 0 (Savinase Ultra 16.0L; base formulation II., 1.5 wt % component (a), T0): 100
protease activity, referring to reference formulation at time 0 (Savinase Ultra 16.0L; [15]): 97
protease activity, referring to reference formulation at time 0 (Savinase Ultra 16.0L; [16]): 95
protease activity, referring to reference formulation at time 0 (Savinase Ultra 16.0L; [17]): 92
protease activity, referring to reference formulation at time 0 (Savinase Ultra 16.0L; [18]): 87
protease activity, referring to reference formulation at time 0 (Savinase Ultra 16.0L; [19]): 74
protease activity, referring to reference formulation at time 0 (Savinase Ultra 16.0L; [20]): 64
protease activity, referring to reference formulation at time 0 (Savinase Ultra 16.0L; [21]): 100
protease activity, referring to reference formulation at time 0 (Savinase Ultra 16.0L; [8]): 96
protease activity, referring to reference formulation at time 0 (Savinase Ultra 16.0L; [9]): 88
protease activity, referring to reference formulation at time 0 (Savinase Ultra 16.0L; [10]): 79
protease activity, referring to reference formulation at time 0 (Savinase Ultra 16.0L; [11]): 74
protease activity, referring to reference formulation at time 0 (Savinase Ultra 16.0L; [12]): 68
protease activity, referring to reference formulation at time 0 (Savinase Ultra 16.0L; [13]): 62
protease activity, referring to reference formulation at time 0 (Savinase Ultra 16.0L; [14]): 98
protease activity, referring to reference formulation at time 0 (Savinase Ultra 16.0L; [22]): 93
protease activity, referring to reference formulation at time 0 (Savinase Ultra 16.0L; [23]): 88
protease activity, referring to reference formulation at time 0 (Savinase Ultra 16.0L; [24]): 79
protease activity, referring to reference formulation at time 0 (Savinase Ultra 16.0L; [25]): 72
protease activity, referring to reference formulation at time 0 (Savinase Ultra 16.0L; [26]): 66
protease activity, referring to reference formulation at time 0 (Savinase Ultra 16.0L; [27]): 54
protease activity, referring to reference formulation at time 0 (Savinase Ultra 16.0L; [28]): 97
